Source: patent US9115101B2 (Genentech, Inc., priority 2012, dated 2015)

What follows are compounds tested against T1, RORc ligand binding domain (Homo sapiens, UniProt P51449) (assay: In Vitro RORc Ligand Binding Assay (25-[3H]hydroxycholesterol radioligand filtration)). Conditions: In Vitro RORc Ligand Binding Assay; Table 4; read-out: RORc IC50.
T1 construct: host or cells: E. coli
T1 sequence (P51449 269-508 limits assumed): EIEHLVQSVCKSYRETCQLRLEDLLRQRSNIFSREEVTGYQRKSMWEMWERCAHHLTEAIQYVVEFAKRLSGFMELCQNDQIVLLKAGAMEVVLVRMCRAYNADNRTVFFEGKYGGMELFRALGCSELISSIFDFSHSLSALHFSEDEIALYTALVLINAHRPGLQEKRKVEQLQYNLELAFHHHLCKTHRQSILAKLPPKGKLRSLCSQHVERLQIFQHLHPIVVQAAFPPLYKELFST

Row | IC50 | Compound
1 | 903 nM | C[C@H]1CCC(c2ccccc2)S(=O)(=O)N1Cc1ccc(C(=O)N2CCC3(CC2)COC3)cc1 (stereo partly drawn) [Example 362, [4-((3S)-Methyl-1,1-dioxo-6-phenyl-[1,2]thiazinan-2-ylmethyl)-phenyl]-(2-oxa-7-aza-spiro[3.5]non-7-yl)-methanone]
2 | 166 nM | Cc1ncc2n1CCN(c1ccc(CN3[C@@H](C)CCC(c4ccccc4)S3(=O)=O)c(F)c1)C2 (stereo partly drawn) [Example 374, 7-[3-Fluoro-4-((3S)-methyl-1,1-dioxo-6-phenyl-[1,2]thiazinan-2-ylmethyl)-phenyl]-3-methyl-5,6,7,8-tetrahydro-imidazo[1,5-a]pyrazine]
3 | 2030 nM | CC(=O)NCCC1CCN(C(=O)c2ccc(CN3[C@@H](C)CCC(c4ccccc4)S3(=O)=O)cc2)CC1 (stereo partly drawn) [Example 359, N-(2-{1-[4-((3S)-Methyl-1,1-dioxo-6-phenyl-[1,2]thiazinan-2-ylmethyl)-benzoyl]-piperidin-4-yl}-ethyl)-acetamide]
4 | 2920 nM | C[C@H]1CCC(c2ccccc2)S(=O)(=O)N1Cc1ccc(C(=O)N2CC3COCC3C2)cc1 (stereo partly drawn) [Example 364, [4-((3S)-Methyl-1,1-dioxo-6-phenyl-[1,2]thiazinan-2-ylmethyl)-phenyl]-(tetrahydro-furo[3,4-c]pyrrol-5-yl)-methanone]
5 | 607 nM | C[C@H]1CCC(c2ccccc2)S(=O)(=O)N1Cc1ccc(C(=O)NC2CN(S(C)(=O)=O)C2)cc1 (stereo partly drawn) [Example 387, N-(1-Methanesulfonyl-azetidin-3-yl)-4-((3S)-methyl-1,1-dioxo-6-phenyl-[1,2]thiazinan-2-ylmethyl)-benzamide]
6 | 449 nM | O=c1[nH]nc(C2CCN(c3ccc(CN4CCCCC(c5ccccc5)S4(=O)=O)cc3)CC2)o1 (single isomer, unassigned) [Example 343, 5-{1-[4-(1,1-Dioxo-7-phenyl-[1,2]thiazepan-2-ylmethyl)-phenyl]-piperidin-4-yl}-3H-[1,3,4]oxadiazol-2-one]
7 | 2270 nM | CC(=O)N1CC2CC2(NC(=O)c2ccc(CN3[C@@H](C)CCC(c4ccccc4)S3(=O)=O)cc2)C1 (stereo partly drawn) [Example 367, N-(3-Acetyl-3-aza-bicyclo[3.1.0]hex-1-yl)-4-((3S)-methyl-1,1-dioxo-6-phenyl-[1,2]thiazinan-2-ylmethyl)-benzamide]
8 | 50 nM | CC(=O)N1CCN(c2ccc(CN3CCCCC(c4ccccc4)S3(=O)=O)cc2F)CC1 (single isomer, unassigned) [Example 346, 1-{4-[4 (1,1-Dioxo-7-phenyl-[1,2]thiazepan-2-ylmethyl)-2-fluoro-phenyl]-piperazin-1-yl}-ethanone]
9 | 2 nM | O=S1(=O)C(c2ccccc2)CCCCN1Cc1ccc(N2CCC(n3cnnc3)CC2)cc1F (single isomer, unassigned) [Example 323, 2-[2-Fluoro-4-(4-[1,2,4]triazol-4-yl-piperidin-1-yl)-benzyl]-7-phenyl-[1,2]thiazepane 1,1-dioxide]
10 | 1220 nM | C[C@H]1CCC(c2ccccc2)S(=O)(=O)N1Cc1ccc(C(=O)N2CCC3(CCOC3)C2)cc1 (stereo partly drawn) [Example 358, [4-((3S)-Methyl-1,1-dioxo-6-phenyl-[1,2]thiazinan-2-ylmethyl)-phenyl]-(2-oxa-7-aza-spiro[4.4]non-7-yl)-methanone]

The next lines start with the compound.

Row | Compound | IC50
11 | C[C@H]1CCC(c2ccccc2)S(=O)(=O)N1Cc1ccc(C(=O)N2CCC(C#N)CC2)cc1 (stereo partly drawn) [Example 279, 1-[4-((3S)-Methyl-1,1-dioxo-6-phenyl-[1,2]thiazinan-2-ylmethyl)-benzoyl]-piperidine-4-carbonitrile] | 4280 nM
12 | CC(=O)N1CCN(c2ccc(CN3CC(C)CC(c4ccccc4)S3(=O)=O)c(F)c2)CC1 (single isomer, unassigned) [Example 119, 1-{4-[3-Fluoro-4-(4-methyl-1,1-dioxo-6-phenyl-[1,2]thiazinan-2-ylmethyl)-phenyl]-piperazin-1-yl}-ethanone] | 2 nM
13 | C[C@H]1CCC(c2ccccc2)S(=O)(=O)N1Cc1ccc(N2CCC(n3cnnc3)CC2)cc1F (single isomer, unassigned) [Example 150] | 29 nM
14 | CC(=O)N1CCN(c2ccc(CN3[C@@H](C)CCC(c4ccc(Cl)cc4)S3(=O)=O)c(F)c2)CC1 (single isomer, unassigned) [Example 175] | 30 nM
15 | C[C@@H]1CC(c2ccccc2)S(=O)(=O)N(Cc2ccc(N3CCC(n4cnnc4)CC3)cc2F)C1 (stereo partly drawn) [Example 265, 2-[2-Fluoro-4-(4-[1,2,4]triazol-4-yl-piperidin-1-yl)-benzyl]-(4R)-methyl-6-phenyl-[1,2]thiazinane 1,1-dioxide] | 66 nM
16 | CC(=O)N1CCN(c2ccc(CN3C(C)(C)CCC(c4ccccc4)S3(=O)=O)c(F)c2)CC1 (single isomer, unassigned) [Example 14, 1-{4-[4-(3,3-Dimethyl-1,1-dioxo-6-phenyl-[1,2]thiazinan-2-ylmethyl)-3-fluoro-phenyl]-piperazin-1-yl}-ethanone] | 1900 nM
17 | C[C@H]1CCC(c2ccccc2)S(=O)(=O)N1Cc1ccc(N2CCC(C(N)=O)CC2)cc1F (single isomer, unassigned) [Example 221] | 85 nM
18 | CC[C@H]1CCC(c2ccccc2)S(=O)(=O)N1Cc1ccc(NC2CCN(S(C)(=O)=O)CC2)cc1F (single isomer, unassigned) [Example 239] | 3 nM
19 | CC(=O)N1CCN(c2ccc(CN3CCC(c4ccc(F)cc4)S3(=O)=O)c(F)c2)CC1 (centres unmarked) [Example 9, 1-(4-{3-Fluoro-4-[5-(4-fluoro-phenyl)-1,1-dioxo-isothiazolidin-2-ylmethyl]-phenyl}-piperazin-1-yl)-ethanone] | 7600 nM
20 | C[C@H]1CCC(c2ccccc2)S(=O)(=O)N1Cc1ccc(C(=O)NCC2CCOC2)cc1 (stereo partly drawn) [Example 271, 4-((3S)-Methyl-1,1-dioxo-6-phenyl-[1,2]thiazinan-2-ylmethyl)-N-(tetrahydro-furan-3-ylmethyl)-benzamide] | 1690 nM
21 | C[C@H](O)C(=O)N1C[C@H]2C[C@@H]1CN2c1ccc(CN2[C@@H](C)CCC(c3ccccc3)S2(=O)=O)c(F)c1 (single isomer, unassigned) [Example 182] | 41 nM
22 | O=C(CO)N1CCN(c2ccc(CN3CCCCC(c4ccccc4)S3(=O)=O)cc2)CC1 (single isomer, unassigned) [Example 316, 1-{4-[4-(1,1-Dioxo-7-phenyl-[1,2]thiazepan-2-ylmethyl)-phenyl]-piperazin-1-yl}-2-hydroxy-ethanone] | 173 nM
23 | CC(=O)N1CCN(c2ccc(CN3[C@@H](C)CCC(c4cccc(C#N)c4)S3(=O)=O)c(F)c2)CC1 (single isomer, unassigned) [Example 203] | 206 nM
24 | C[C@H]1CCC(c2ccccc2)S(=O)(=O)N1Cc1ccc(NC2CCC(C#N)CC2)cc1F (stereo partly drawn) [Example 101, 4-[3-Fluoro-4-((3S)-3-methyl-1,1-dioxo-6-phenyl-[1,2]thiazinan-2-ylmethyl)-phenylamino]-cyclohexanecarbo-nitrile] | 18 nM
25 | C[C@@H]1CC(c2ccccc2)S(=O)(=O)N(Cc2ccc(NC3CCN(S(C)(=O)=O)CC3)cc2F)C1 (stereo partly drawn) [Example 227, [3-Fluoro-4-((4R)-methyl-1,1-dioxo-6-phenyl-[1,2]thiazinan-2-ylmethyl)-phenyl]-(1-methanesulfonyl-piperidin-4-yl)-amine] | 3 nM
26 | C[C@H]1CCC(c2ccccc2)S(=O)(=O)N1Cc1ccc(OC2CCN(S(C)(=O)=O)CC2)cc1F (single isomer, unassigned) [Example 32] | 17 nM
27 | CC(=O)N1CCCN(c2ccc(CN3[C@@H](C)CCC(c4ccccc4)S3(=O)=O)c(F)c2)CC1 (single isomer, unassigned) [Example 80] | 14 nM
28 | C[C@H]1CCC(c2ccccc2)S(=O)(=O)N1Cc1ccc(C(=O)N2CCN(S(=O)(=O)N(C)C)CC2)cc1 (stereo partly drawn) [Example 286, 4-[4-((3S)-Methyl-1,1-dioxo-6-phenyl-[1,2]thiazinan-2-ylmethyl)-benzoyl]-piperazine-1-sulfonic acid dimethylamide] | 7420 nM
29 | CC[C@H]1CCC(c2ccccc2)S(=O)(=O)N1Cc1ccc(N2CCC(n3cnnc3)CC2)cc1F (single isomer, unassigned) [Example 229] | 168 nM
30 | C[C@@H](O)C(=O)N1CCN(c2ccc(CN3CCCCC(c4ccccc4)S3(=O)=O)cc2)CC1 (single isomer, unassigned) [Example 317, 1-{4-[4-(1,1-Dioxo-7-phenyl-[1,2]thiazepan-2-ylmethyl)-phenyl]-piperazin-1-yl}-2-hydroxy-propan-1-one] | 3400 nM
31 | C[C@H]1CCC(c2ccccc2)S(=O)(=O)N1Cc1ccc(N2CCC(CS(C)(=O)=O)CC2)cc1F (single isomer, unassigned) [Example 104] | 54 nM
32 | C[C@@H]1CCC(c2ccccc2)S(=O)(=O)N1Cc1ccc(OC2CCN(S(C)(=O)=O)CC2)cc1F (stereo partly drawn) [Example 53, 2-(2-fluoro-4-((1-(methylsulfonyl)piperidin-4-yl)oxy)benzyl)-(3R)-3-methyl-6-phenyl-1,2-thiazinane 1,1-dioxide] | 6 nM
33 | CC(=O)N1CCN(c2ccc(CN3CC(C)CC(c4ccccc4)S3(=O)=O)c(F)c2)CC1 (single isomer, unassigned) [Example 118, 1-{4-[3-Fluoro-4-(4-methyl-1,1-dioxo-6-phenyl-[1,2]thiazinan-2-ylmethyl)-phenyl]-piperazin-1-yl}-ethanone] | 20 nM
34 | C[C@H]1CCC(c2ccccc2)S(=O)(=O)N1Cc1ccc(N2CCC(n3ccnn3)CC2)cc1F (single isomer, unassigned) [Example 256] | 4 nM

Same assay, conditions: read-out: RORc IC50

Row | IC50 | Compound
35 | 70 nM | C[C@H]1CCC(c2ccccc2)S(=O)(=O)N1Cc1ccc(N2CCC(n3cnnn3)CC2)cc1 (stereo partly drawn) [Example 422, (3S)-Methyl-6-phenyl-2-[4-(4-tetrazol-1-yl-piperidin-1-yl)-benzyl]-[1,2]thiazinane 1,1-dioxide]
